The nature of the data set: Human HepG2 cell viability assay in 384 well format. The format is toxicity, cell-based. On the set-up: dose 125 nL, time 70.5 hour; cytotoxicity at 70.5 h: concentration not given beside the values. The following applies: HepG2 cells, read-out: Inhibition.

The values that follow come from ChEMBL document CHEMBL3507680, “University of Dundee, Gates Library screen for HepG2 cell viability”.

Regarding `Cc1ccc(CNC2CCCN(Cc3noc(C4CC4)n3)C2)s1` (stereo not drawn), the cytotoxicity at 70.5 h was found to be 28.4%.

In the case of `Cc1cnn(CCNCc2nc(CNC(=O)c3ccccc3)no2)c1`, the cytotoxicity at 70.5 h was 22.6%.

With `CCc1nc(CN2CCCC(NCc3cnc(C)s3)C2)no1` (stereo not drawn), the cytotoxicity at 70.5 h is 22.5%.

Turning to `Cc1noc(CNC2CCCN(Cc3noc(C4CC4)n3)C2)n1` (stereo not drawn), the cytotoxicity at 70.5 h was -2.29%.

In the case of `Cc1cc(CNC2CCCN(Cc3noc(C4CC4)n3)C2)on1` (stereo not drawn), the cytotoxicity at 70.5 h amounted to 23.9%.

As for `CC(C)c1nc2c(n1C)CCN(Cc1cccc(OCC(N)=O)c1)C2`, the cytotoxicity at 70.5 h is 0.112%.

Take `Cc1ccsc1CNC1CCCN(Cc2noc(C3CC3)n2)C1` (stereo not drawn): the cytotoxicity at 70.5 h was -2.45%.

For the compound `CCc1ccc(C(=O)N2CCN(CCO)CC2)o1`, the cytotoxicity at 70.5 h was -1.18%.

On to `O=C(c1cc2c(s1)CCC2)N1CCCC1c1noc(C2CC2)n1` (stereo not drawn), for which the cytotoxicity at 70.5 h was -0.753%.

In the case of `c1coc(-c2nc(CNCCn3cccn3)cs2)c1`, the cytotoxicity at 70.5 h was -5.85%.

Take `CCc1nc(C2CCCN2CC(=O)N2CCc3ccccc32)no1` (stereo not drawn): the cytotoxicity at 70.5 h is -5.32%.

Consider `c1csc(-c2nc(CNCCn3cccn3)cs2)c1`, for which the cytotoxicity at 70.5 h was -7.37%.

Regarding `O=C(c1ccc2c(c1)CCO2)N1CCN(c2cnccn2)CC1`, the cytotoxicity at 70.5 h is -5.33%.

On to `O=C(Cc1ccc2c(c1)CCC2)N1CCN(c2cnccn2)CC1`, for which the cytotoxicity at 70.5 h is 2.45%.

As to `CCOc1ccccc1OC1CCN(C(=O)c2cnsn2)CC1`, the cytotoxicity at 70.5 h was -1.79%.

Regarding `Cc1cc(C)c(CNC(=O)Cc2ccc3c(c2)CCCC3)c(=O)[nH]1`, the cytotoxicity at 70.5 h was -7.45%.

As for `Cc1cc(C)c(CNC(=O)NC(C)c2ccc3c(c2)CCC3)c(=O)[nH]1` (stereo not drawn), the cytotoxicity at 70.5 h was determined as 25.3%.

As for `Cc1cc(C)c(CNC(=O)NCc2ccc3c(c2)OCCO3)c(=O)[nH]1`, the cytotoxicity at 70.5 h was 0.304%.

On to `CCn1ccnc1CN1CCN(Cc2cccc(C#N)c2)CC1`, for which the cytotoxicity at 70.5 h was determined as 21.4%.

For `Cc1ccc(O)c(CNC2CCCN(Cc3noc(C4CC4)n3)C2)n1` (stereo not drawn), the cytotoxicity at 70.5 h was -4.57%.

Take `CC(C)c1nc(C2CCCN(C(=O)Cn3ccccc3=O)C2)no1` (stereo not drawn): the cytotoxicity at 70.5 h was -1.03%.

As for `CC(C)Oc1ncccc1CNC(=O)N1CCC1`, the cytotoxicity at 70.5 h is -7.74%.

For `CNS(=O)(=O)c1ccc(C(=O)NCCc2ccccn2)cc1`, the cytotoxicity at 70.5 h is -10.7%.

Turning to `CCCNC(=O)N1CCN(Cc2cc(C)no2)CC1`, the cytotoxicity at 70.5 h is -8.29%.

Turning to `O=C(CN1C=Nc2ccccc2S1(=O)=O)NCCc1cccs1`, the cytotoxicity at 70.5 h was found to be 1.55%.

Regarding `Cc1noc(Cl)c1CCC(=O)N1CCN(c2ncccn2)CC1`, the cytotoxicity at 70.5 h is -7.01%.

On to `COc1ccccc1CNC(=O)N1CCCC(c2nncn2C)C1` (stereo not drawn), for which the cytotoxicity at 70.5 h is -2.85%.

As to `CCOc1ccccc1C(=O)NS(=O)(=O)c1ccc2c(c1)OCCCO2`, the cytotoxicity at 70.5 h is -4.55%.

On to `Cc1nnc2n1CCN(CCC(=O)Nc1sccc1C#N)C2`, for which the cytotoxicity at 70.5 h was -12.9%.

Consider `CCc1nnc2n1CCN(CC(=O)Nc1sccc1C#N)C2`, for which the cytotoxicity at 70.5 h is -9.93%.

For `COc1ccc(CNC(=O)NCc2c(C)cc(C)[nH]c2=O)cc1`, the cytotoxicity at 70.5 h is -11.9%.

`Cc1cnn(C2CN(CC(=O)Nc3cccnc3)C2)c1`: the cytotoxicity at 70.5 h was -9.68%.

For `COc1ccc(CCC(=O)NC2CCC(O)CC2)cc1OC` (stereo not drawn), the cytotoxicity at 70.5 h was -4.91%.

In the case of `Cc1cnn(C2CN(CC(=O)NCCc3ccccc3)C2)c1`, the cytotoxicity at 70.5 h was -16.2%.

`Cn1cc(C2CCCN2C(=O)c2ccc(Br)o2)cn1` (stereo not drawn): the cytotoxicity at 70.5 h is -10.2%.

As for `CC(C)c1cc(NC(=O)CN2CCCC2Cn2cccn2)on1` (stereo not drawn), the cytotoxicity at 70.5 h was -1.57%.

As for `Cn1cnc2c1CCN(Cc1nc(Cc3ccccc3)no1)C2`, the cytotoxicity at 70.5 h was -3.21%.

On to `CC(C(=O)NCCN1CCCCCC1)n1cncn1` (stereo not drawn), for which the cytotoxicity at 70.5 h is -0.492%.

`O=C(CN1CCCC(Cn2cncn2)C1)NCc1ccco1` (stereo not drawn): the cytotoxicity at 70.5 h is -15.8%.

As to `COCCCNC(=O)N1CCCC(c2nncn2C)C1` (stereo not drawn), the cytotoxicity at 70.5 h is -12.4%.

`Cc1nn(C)c(C)c1C1CCCN1Cc1noc(C2CC2)n1` (stereo not drawn): the cytotoxicity at 70.5 h was 7.14%.

As to `Cc1nccn1-c1cc(CNC(=O)CCC2CCCO2)ccn1` (stereo not drawn), the cytotoxicity at 70.5 h was 43.5%.

For the compound `CCc1nc(C(=O)N2CCN(C)CC2C)nn1-c1ccccc1Cl` (stereo not drawn), the cytotoxicity at 70.5 h worked out at 23.5%.

For `CCc1noc(C)c1C(=O)N1CCCC1Cn1cc(C)cn1` (stereo not drawn), the cytotoxicity at 70.5 h stood at 25.2%.

Regarding `CC(C)c1nn(C)c(N2CCOCC2)c1CNC(C)c1cccs1` (stereo not drawn), the cytotoxicity at 70.5 h is -1.47%.

In the case of `Cc1nccc(-c2cccc(NCC(=O)N3CCc4sccc4C3)c2)n1`, the cytotoxicity at 70.5 h was 2.9%.

As to `Cc1nccc(-c2cccc(NCC(=O)N3CCNC3=O)c2)n1`, the cytotoxicity at 70.5 h was -0.295%.

On to `O=C(CCC1CCCO1)NCc1ccnc(-n2cccn2)c1` (stereo not drawn), for which the cytotoxicity at 70.5 h was 23.5%.

Consider `Cc1ncsc1C(=O)NC1CCN(CC(=O)N(C)c2ccccc2)CC1`, for which the cytotoxicity at 70.5 h is -1.98%.

Take `Cc1ncsc1C(=O)NC1CCN(CC(=O)NCc2ccccc2)CC1`: the cytotoxicity at 70.5 h turned out to be 2.21%.

As for `Cc1noc(C)c1CN(C)C(=O)c1ccc(NC2CC2)nc1`, the cytotoxicity at 70.5 h worked out at 0.339%.

With `CC(NC(=O)CSCC#N)c1cccc(NC(=O)c2ccccc2)c1` (stereo not drawn), the cytotoxicity at 70.5 h was determined as 10.4%.

Take `Cc1cc(C)c(CNC(=O)NCC(O)COc2ccccc2)c(=O)[nH]1` (stereo not drawn): the cytotoxicity at 70.5 h came out at 21.6%.

Turning to `CC(C)c1nn(C)c(N(C)C)c1CNCc1ccc2c(c1)OCO2`, the cytotoxicity at 70.5 h was found to be 2.49%.

With `CC(C)c1nn(C)c(N2CCOCC2)c1CN[C@H](C)CO`, the cytotoxicity at 70.5 h is -1.16%.

`CC(CCc1ccco1)NC(=O)Nc1cc(C(F)(F)F)c[nH]c1=O` (stereo not drawn): the cytotoxicity at 70.5 h is 0.203%.

Regarding `CCN1CCN(C(=O)c2nc(C)n(-c3ccccc3Cl)n2)CC1`, the cytotoxicity at 70.5 h turned out to be 7.74%.

Take `CCc1noc(C)c1C(=O)N1CCCC1Cn1nc(C)cc1C` (stereo not drawn): the cytotoxicity at 70.5 h was -3.58%.

In the case of `CC(=O)Nc1nc(C(=O)N2CCCC(n3ccnc3)C2)cs1` (stereo not drawn), the cytotoxicity at 70.5 h is -0.488%.

`COCCc1noc(CN2CCc3nn(C(C)C)c(=O)cc3C2)n1`: the cytotoxicity at 70.5 h is 32.4%.

For the compound `CN(Cc1ccc(Cl)s1)C(=O)NCc1nnc2n1CCC2`, the cytotoxicity at 70.5 h worked out at 2.59%.

Turning to `CC(=O)NC1CCCN(C(=O)NCc2ccc(-c3ccn[nH]3)cc2)C1` (stereo not drawn), the cytotoxicity at 70.5 h was determined as 3.22%.

`CC(C)(C)c1ncc(C(=O)NCCNC(=O)c2ccccc2)s1`: the cytotoxicity at 70.5 h amounted to 1.17%.

`Cc1[nH]nc2ncc(C(=O)N3CCN(CC(C)C)CC3)cc12`: the cytotoxicity at 70.5 h stood at 11.9%.

For the compound `CC(=O)N1CCCN(C(=O)NCc2cc[nH]n2)CC1`, the cytotoxicity at 70.5 h was found to be 44.8%.

Regarding `O=C(CCc1cccs1)N1CCC(Nc2cccnn2)CC1`, the cytotoxicity at 70.5 h was determined as 42.7%.

On to `O=C(CCCOc1ccc(F)cc1F)N1CCCC1Cn1cccn1` (stereo not drawn), for which the cytotoxicity at 70.5 h was found to be 1.98%.

Take `Cc1ccc(NS(=O)(=O)c2cc3c(c(C(=O)O)c2)OCCO3)c(F)c1`: the cytotoxicity at 70.5 h stood at 44.6%.

As to `Cc1ccccc1NS(=O)(=O)c1cc2c(c(C(=O)O)c1)OCCO2`, the cytotoxicity at 70.5 h is 6.41%.

In the case of `COC(=O)c1ccc(N2CCN(CCN3CCOCC3)C(C)C2)cc1` (stereo not drawn), the cytotoxicity at 70.5 h was -6.62%.

Take `COC1CCN(C(=O)CCc2c(C)nc3ccnn3c2C)CC1`: the cytotoxicity at 70.5 h is -0.665%.

For `CC(Cn1cccn1)NCc1nc(-c2cccc(Cl)c2)no1` (stereo not drawn), the cytotoxicity at 70.5 h was determined as 7.24%.

`CC(Cn1cccn1)NCc1nc(-c2cccs2)no1` (stereo not drawn): the cytotoxicity at 70.5 h is 3.96%.
